Test results taken from patent US9179674B2, “Macrocyclic picolinamide compounds with fungicidal activity” (DOW AGROSCIENCES LLC, priority 2013, dated 2015).
Like-named read-outs stand apart in the source and are kept apart here.

Key:
Type in all cases: in vivo
[1] = test system: Mycosphaerella graminicola; Anamorph: Septoria tritici; experiment: Leaf Blotch of Wheat fungicidal activity (SEPTTR); details: Zymoseptoria tritici; for pest or weed control at 100 ppm: rate 100 ppm; for pest or weed control at 121.5 g/ha: rate 121.5 g/H
Summary of the method: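 Acetone solutions diluted with nine volumes of water containing 110 ppm Triton X-100, sprayed to run-off on first-leaf wheat seedlings (Yuma), inoculated with S. tritici before or after treatment. Plants held in dew chambers, then in a 20 °C greenhouse. Disease severity (0–100%) scored when untreated plants fully symptomatic; % control relative to untreated.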

Uncinula necator = experiment: Grape Powdery Mildew fungicidal activity (UNCINE); details: Erysiphe necator, 24 h, 1 Day Protectant, read-out: Disease Control UNCINE 1DP
Protocol: Technical grades of materials were dissolved in acetone, which were then mixed with nine volumes of water containing 110 ppm Triton X-100. The fungicide solutions were applied onto wheat seedlings using an automated booth sprayer to run-off. All sprayed plants were allowed to air dry prior to further handling. All fungicides were evaluated using the aforementioned method for their activity vs. all target diseases. Wheat leaf blotch and brown rust activity were also evaluated using track spray applications, in which case the fungicides were formulated as EC formulations, containing 0.1% Trycol 5941 in the spray solutions. Wheat plants (variety Yuma) were grown from seed in a greenhouse in 50% mineral soil/50% soil-less Metro mix until the first leaf was fully emerged, with 7-10 seedlings per pot. These plants were inoculated with an aqueous spore suspension of Septoria tritici either prior to or after fungicide treatments. After inoculation the plants were kept in 100% relative humidity (one day in a dark dew chamber followed by two to three days in a lighted dew chamber at 20° C.) to permit spores to germinate and infect the leaf. The plants were then transferred to a greenhouse set at 20° C. for disease to develop. When disease symptoms were fully expressed on the 1st leaves of untreated plants, infection levels were assessed on a scale of 0 to 100 percent disease severity. Percent disease control was calculated using the ratio of disease severity on treated plants relative to untreated plants. Evaluation of Fungicidal Activity: Grape Powdery Mildew (Uncinula necator; Bayer code […]) Grape seedlings (variety Carignane) were grown in soil-less Metro mix, with one plant per pot, and used in the test when approximately one month old. Plants were inoculated 24 hr after fungicide treatment by shaking spores from infected leaves over test plants. Plants were maintained in a greenhouse set at 20° C. until disease was fully developed. Fungicide formulation, application and disease assessment on the sprayed leaves followed the procedures as described in the Example A.

Erysiphe cichoracearum = experiment: Powdery Mildew of Cucumber fungicidal activity (ERYSCI); details: Golovinomyces cichoracearum, 24 h, 1 Day Protectant, read-out: Disease Control ERYSCI 1DP
Protocol: Technical grades of materials were dissolved in acetone, which were then mixed with nine volumes of water containing 110 ppm Triton X-100. The fungicide solutions were applied onto wheat seedlings using an automated booth sprayer to run-off. All sprayed plants were allowed to air dry prior to further handling. All fungicides were evaluated using the aforementioned method for their activity vs. all target diseases. Wheat leaf blotch and brown rust activity were also evaluated using track spray applications, in which case the fungicides were formulated as EC formulations, containing 0.1% Trycol 5941 in the spray solutions. Wheat plants (variety Yuma) were grown from seed in a greenhouse in 50% mineral soil/50% soil-less Metro mix until the first leaf was fully emerged, with 7-10 seedlings per pot. These plants were inoculated with an aqueous spore suspension of Septoria tritici either prior to or after fungicide treatments. After inoculation the plants were kept in 100% relative humidity (one day in a dark dew chamber followed by two to three days in a lighted dew chamber at 20° C.) to permit spores to germinate and infect the leaf. The plants were then transferred to a greenhouse set at 20° C. for disease to develop. When disease symptoms were fully expressed on the 1st leaves of untreated plants, infection levels were assessed on a scale of 0 to 100 percent disease severity. Percent disease control was calculated using the ratio of disease severity on treated plants relative to untreated plants. Evaluation of Fungicidal Activity: Powdery Mildew of Cucumber (Erysiphe cichoracearum; Bayer Code […]) Cucumber seedlings (variety Bush Pickle) were grown in soil-less Metro mix, with one plant per pot, and used in the test when 12 to 14 days old. Plants were inoculated with a spore suspension 24 hr following fungicide treatments. After inoculation the plants remained in the greenhouse set at 20° C. until disease was fully expressed. Fungicide formulation, application and disease assessment on the sprayed leaves followed the procedures as described in the Example A.

[2] = test system: Blumeria graminis f.sp. hordei; experiment: Barley Powdery Mildew fungicidal activity (ERYSGH); details: 24 h, 1 Day Protectant, read-out: Disease Control ERYSGH 1DP
Protocol: Technical grades of materials were dissolved in acetone, which were then mixed with nine volumes of water containing 110 ppm Triton X-100. The fungicide solutions were applied onto wheat seedlings using an automated booth sprayer to run-off. All sprayed plants were allowed to air dry prior to further handling. All fungicides were evaluated using the aforementioned method for their activity vs. all target diseases. Wheat leaf blotch and brown rust activity were also evaluated using track spray applications, in which case the fungicides were formulated as EC formulations, containing 0.1% Trycol 5941 in the spray solutions. Wheat plants (variety Yuma) were grown from seed in a greenhouse in 50% mineral soil/50% soil-less Metro mix until the first leaf was fully emerged, with 7-10 seedlings per pot. These plants were inoculated with an aqueous spore suspension of Septoria tritici either prior to or after fungicide treatments. After inoculation the plants were kept in 100% relative humidity (one day in a dark dew chamber followed by two to three days in a lighted dew chamber at 20° C.) to permit spores to germinate and infect the leaf. The plants were then transferred to a greenhouse set at 20° C. for disease to develop. When disease symptoms were fully expressed on the 1st leaves of untreated plants, infection levels were assessed on a scale of 0 to 100 percent disease severity. Percent disease control was calculated using the ratio of disease severity on treated plants relative to untreated plants. Evaluation of Fungicidal Activity: Barley Powdery Mildew (Blumeria graminis fsp. hordei; Synonym: Erysiphe graminis fsp. hordei; Bayer Code […]) Barley seedlings (variety Harrington) were propagated in soil-less Metro mix, with each pot having 8 to 12 plants, and used in the test when first leaf was fully emerged. Test plants were inoculated by dusting with infected stock plants 24 hr after fungicide treatments. After inoculation the plants were kept in a greenhouse set at 20° C. for disease to develop. Fungicide formulation, application and disease assessment on the sprayed leaves followed the procedures as described in the Example A.

[3] = 24 h, 1 Day Protectant, read-out: Disease control SEPTTR 1DP
[4] = 72 h, 3 Day Curative, read-out: Disease control SEPTTR 3DC

COc1ccnc(C(=O)N[C@H]2COC[C@H](CCC(C)C)[C@@H](OC(=O)C3CC3)[C@H](C)OC2=O)c1OCOC(C)=O [Compound F108]
80 to 100%: pest or weed control at 100 ppm [1, 3] | pest or weed control at 121.5 g/ha [1, 3] | pest or weed control at 100 ppm [1, 4] | pest or weed control at 121.5 g/ha [1, 4] | pest or weed control at 100 ppm (Uncinula necator) | pest or weed control at 100 ppm (Erysiphe cichoracearum) | pest or weed control at 100 ppm [2]
